Literature values in US20090181849A1, “Agricultural chemical containing top dressing composition and process for use thereof” (priority 2007, published 2009).

Columns and labels:
curvularia fungus = details: Kentucky bluegrass plants growing in sand; sprayed and fertilized in separate applications; not on bent grass or Bermuda grass plants
S. homoeocarpa = details: bent grass, blend of Cato:Crenshaw (50:50); disease pressure high

For `O=[N+]([O-])NC1=NCCN1Cc1ccc(Cl)nc1` [imidacloprid], which “control of curvularia fungus” value (curvularia fungus) is on record?
Its value is “successful control”.

With `CSC(=O)c1cccc2nnsc12` [ASM, acibenzolar-5-methyl] as the compound, how does the “reduction of number of S. homoeocarpa infection centers” value (S. homoeocarpa) read?
The value was 38%.
